Experiments:
Test in all cases: relative viability (nuclei count vs DMSO), 5 days (fraction); higher = more cells survive
[1] = compound: CN1CCN(CC1)C2=CC(=C(C=C2)NC3=NC=C4C(=N3)N(C5=CC=CC=C5C(=O)N4C)C)OC [XMD8-85] + Nc1ncn([C@H]2C[C@H](O)[C@@H](CO)O2)c(=O)n1 [Decitabine] (partner 2 µM)
Summary of the method: (§1)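 Dosing by pin tool came one day after lung cancer cell lines were seeded in 1536-well plates, using either one drug or a fixed anchor-drug dose plus five library-drug doses (not always all listed) in √10 steps. After 5 days, nuclei were counted on 4× images. Relative viability is treated-well nuclei count divided by vehicle-well nuclei count, and values are medians of duplicate plates.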

[2] = compound: O=C(O)C(Cc1ccccc1[N+](=O)[O-])=NNc1nc(-c2ccc(Cl)c(Cl)c2)cs1 (mixture of isomers) [4EGI-1] + NC(=O)Nc1cc(-c2cccc(F)c2)sc1C(=O)N[C@H]1CCCNC1 [AZD7762] (partner 0.2 µM)
Summary of the method: as §1

[3] = compound: CN1CCN(CC1)C2=CC(=C(C=C2)NC3=NC=C4C(=N3)N(C5=CC=CC=C5C(=O)N4C)C)OC [XMD8-85] + CC(C)C[C@H](NC(=O)[C@H](Cc1ccccc1)NC(=O)c1cnccn1)B(O)O [Bortezomib] (partner 0.002 µM)
Summary of the method: as §1

[4] = compound: CN1CCN(CC1)C2=CC(=C(C=C2)NC3=NC=C4C(=N3)N(C5=CC=CC=C5C(=O)N4C)C)OC [XMD8-85] + CCNC(=O)c1noc(-c2cc(C(C)C)c(O)cc2O)c1-c1ccc(CN2CCOCC2)cc1 [Luminespib] (partner 0.01 µM)
Summary of the method: as §1

NCI-H1792
relative viability ([1]; first compound 0.253 µM): 0.468 | relative viability ([1]; first compound 0.8 µM): 0.525 | relative viability ([1]; first compound 2.53 µM): 0.504 | relative viability ([1]; first compound 8 µM): 0.361 | relative viability ([2]; first compound 0.5 µM): 0.67 | relative viability ([2]; first compound 1.581 µM): 0.822 | relative viability ([2]; first compound 5 µM): 0.861 | relative viability ([2]; first compound 15.81 µM): 0.657 | relative viability ([2]; first compound 50 µM): 0.0923 | relative viability ([3]; first compound 0.08 µM): 0.985 | relative viability ([3]; first compound 0.253 µM): 0.776 | relative viability ([3]; first compound 2.53 µM): 0.929 | relative viability ([3]; first compound 8 µM): 0.838 | relative viability ([4]; first compound 0.253 µM): 0.504 | relative viability ([4]; first compound 2.53 µM): 0.371 | relative viability ([4]; first compound 8 µM): 0.35
